Values after ≈ are worked out from the molar mass of the structure shown. Values joined by “and” are separate entries in the source; they are usually repeats but may differ in a detail not shown here. Identical values can stand only once. Like-named read-outs stand apart in the source and are kept apart here.
How the values were obtained:
[1] = system: Propionibacterium acnes ATCC 6919; test: Antibacterial activity assay (MIC, broth dilution); format: cell-based; settings: Cutibacterium acnes
[2] = system: Bacillus anthracis Sterne 34F2; test: microbe, parasite or virus in culture; format: cell-based; settings: STERNE34F2, read-out: MIC, BA
[3] = system: S. epidermidis (RP62A) biofilm; test: Calgary Biofilm Device anti-biofilm activity; format: cell-based; settings: Staphylococcus epidermidis, S. epidermidis biofilm, triplicate runs listed singly; for MBC: read-out: MBEC = Minimum Biofilm Eradication Concentration; for MIC: read-out: MBIC = Minimum Biofilm Inhibitory Concentration
[4] = system: Enterococcus faecalis ATCC 33186; test: Antibacterial activity assay (MIC, broth dilution); format: cell-based
[5] = system: Methicillin Resistant Staphylococcus aureus ATCC 33591; test: Antibacterial activity assay (MIC, broth dilution); format: cell-based; settings: ATCC 33591 / MRSA, read-out: MIC, MRSA
[6] = system: Mycobacterium tuberculosis H37 Rv; test: Antibacterial activity assay (MIC, broth dilution); format: cell-based; settings: H37RV, 168 h, read-out: MIC, TB
[7] = system: MSSA (ATCC 25293) biofilm; test: Calgary Biofilm Device anti-biofilm activity; format: cell-based; settings: Staphylococcus aureus; for MBC: read-out: MBEC = Minimum Biofilm Eradication Concentration; for MIC: read-out: MBIC = Minimum Biofilm Inhibitory Concentration
[8] = system: MRSA (ATCC 35391) biofilm; test: Calgary Biofilm Device anti-biofilm activity; format: cell-based, Staphylococcus aureus; settings: Staphylococcus aureus, MRSA biofilm, triplicate runs listed singly; for MBC: read-out: MBEC = Minimum Biofilm Eradication Concentration; for MIC: read-out: MBIC = Minimum Biofilm Inhibitory Concentration
[9] = system: Streptococcus pyogenes ATCC 700294; test: Antibacterial activity assay (MIC, broth dilution); format: cell-based
[10] = system: Streptococcus pneumoniae DAW30EC; test: Antibacterial activity assay (MIC, broth dilution); format: cell-based; settings: read-out: MIC, SPn
[11] = system: Bacillus subtilis ATCC 23857; test: Antibacterial activity assay (MIC, broth dilution); format: cell-based
[12] = system: Methicillin sensitive Staphylococcus aureus 8325 ATCC 35556; test: Antibacterial activity assay (MIC, broth dilution); format: cell-based; settings: ATCC 35556 / MSSA, read-out: MIC, MSSA
Cytotoxicity assay (MTT) = format: cell-based, monkey; settings: monkey, Vero cells, 72 hours, MTT, read-out: IC50 (Cytotoxicity): Concentration which reduces viability of Vero kidney cells by 50%
Method: (§1) Cytotoxicity assays of drugs of Formula I of Example 3 and of Formula II of Example 5 were performed using the Vero monkey kidney cell line (ATCC, CCL-81). Vero cells were grown in tissue culture flasks in Dulbecco's Modified Eagle's Medium (ATCC) supplemented with 10% fetal bovine serum and maintained in a humidified incubator (37° C., 5% CO2). Cells were removed with a cell scraper, collected by centrifugation and then suspended in fresh medium at ˜10^6 cells/mL. The cell suspensions were dispensed into 96-well microtiter plates (100 μl/well) and incubated for 18 hours at 37° C. before being used for cytotoxicity assays. Test compounds were subsequently added at concentrations ranging from 400-0.024 μg/mL and 0.1% vol/vol of Triton-X 100, which causes 100% death of cells, was included as a control. After incubating cells and compounds for 72 hours in humid air (37° C., 5% CO2) the cytopathic effects of compounds were determined using the MTT Cell Proliferation Assay (ATCC, Cat No. 30-1010K). The MTT solution reagent (10 μl) was added to each well and plates incubated at 37° C. until sufficient purple color development occurred in cells (3 hours). After detergent cell lysis, the purple formazan product was measured at 570 nm in a Synergy HT Biotek microplate reader. IC50 data was obtained from dose response curves plotted from percentage activity versus log10 concentration using Graphpad prism 5.

[13] = system: Vero monkey kidney cell line (ATCC, CCL-81); test: Cytotoxicity assay (MTT); format: cell-based; settings: IC50 divided by MIC against S. aureus 8325
Method: as §1

[14] = system: clinical isolates of MRSA (methicillin resistant S. aureus); format: cell-based
[15] = system: clinical isolates of MSSA (methicillin sensitive S. aureus); format: cell-based
[16] = system: methicillin-sensitive S. aureus ATCC 29213; test: Superficial skin infection model in mice; format: in vivo, Balb/c mice; settings: topical, twice daily for three days, bacteria in lesions on day 5, placebo 8.15 +/− 0.37
Method: Compounds of the invention were tested for the ability to treat skin infections utilizing an established animal model of skin infection. The superficial skin infection model used in this study was previously developed by Kugelberg et al, “Establishment of a Superficial Skin Infection Model in Mice using Staphylococcus aureus and Streptococcus pyogenes”, Antimicrob. Agents Chemother., 49(8):3435-3441 (2005).
Superficial infections in Balb/c mice (male) were caused by first removing hair from the backs of mice with an electric shaver, followed by dry shaving with a razor and tape stripping with Tensoplast® (BSN Medical Inc., Charlotte, N.C.) adhesive bandage to remove the epidermis, followed by infection with a 5 μl bacterial suspension containing about 10^7 bacterial cells of methicillin-sensitive S. aureus ATCC 29213, a strain from a previous isolate from a human wound infection and used in other murine infection studies. After 4 hours of infection, treatment was started by administering 45-50 mg of ointment containing (i) vehicle hydrophilic petrolatum (placebo) (ii) 2% w/w mupirocin ointment (Bactroban®, GlaxoSmithKline plc., United Kingdom) in vehicle or (iii) 2% tetramic acid analogue of the invention (13b) in vehicle, (iv) 10% tetramic acid analogue of the invention (13b) in vehicle, (v) 2% tetramic acid analogue of the invention (13l) in vehicle, or (vi) 10% tetramic acid analogue of the invention (13l) in vehicle. Treatment was continued for three days with drug application twice daily at 8 hour intervals. On day 5, mice were sacrificed and the numbers of bacteria in lesions were enumerated.
This conclusion stems from statistical analysis of the resulting means by one way ANOVA followed by Tukey's test at P<0.01 with Placebo as the control group. Therefore, the tetramic acid analogues of the invention have the potential to be used clinically for the treatment of skin infections, such as those caused by Staphylococcus aureus.

[17] = ATCC6919, Propionibacterium acnes ATCC 6919, read-out: MIC, PA
[18] = ATCC33186, Enterococcus faecalis ATCC 33186, read-out: MIC, EF
[19] = Mycobacterium tuberculosis H37 Rv, […]
[20] = MSSA biofilm, triplicate runs listed singly
[21] = ATCC700294, Streptococcus pyogenes ATCC 700294, read-out: MIC, SP
[22] = Streptococcus pneumoniae DAW30EC
[23] = ATCC23857, Bacillus subtilis ATCC 23857, read-out: MIC, BS
[24] = Methicillin sensitive Staphylococcus aureus 8325 ATCC 35556
[25] = Vero monkey kidney cells (ATCC CCL-81)

| Structure (SMILES) | MIC [1, 17] [µg/mL] | MIC [2] [µg/mL] | MBC [3] [µg/mL] | MIC [3] [µg/mL] | MIC [4, 18] [µg/mL] | MIC [5] [µg/mL] | MIC [6, 19] [µg/mL] | MBC [7, 20] [µg/mL] | MIC [7, 20] [µg/mL] | MBC [8] [µg/mL] | MIC [8] [µg/mL] | MIC [9, 21] [µg/mL] | MIC [10, 22] [µg/mL] | MIC [11, 23] [µg/mL] | MIC [12, 24] [µg/mL] | IC50/MIC = Selectivity (therapeutic) index [13] | Antibiotic MIC ([14]; isolate MRSA-1) [µg/mL] | Antibiotic MIC ([14]; isolate MRSA-2) [µg/mL] | Antibiotic MIC ([14]; isolate MRSA-3) [µg/mL] | IC50 at 72 h (Cytotoxicity assay (MTT); [25]) [µg/mL] | other results |
| --- | --- | --- | --- | --- | --- | --- | --- | --- | --- | --- | --- | --- | --- | --- | --- | --- | --- | --- | --- | --- | --- |
| CC(C)=CCCC(C)CCN1C(=O)/C(=C(/C)O)C(=O)[C@@H]1CC(C)C (stereo partly drawn) [Compound 13m, (5S,Z)-1-(3,7-dimethyloct-6-enyl)-3-(1-hydroxyethylidene)-5-isobutylpyrrolidine-2,4-dione] | 0.4 (≈ 1.19 µM) | 0.4 (≈ 1.19 µM) | 200 (≈ 596 µM) | 0.4 (≈ 1.19 µM) | 0.8 (≈ 2.38 µM) | 0.8 (≈ 2.38 µM) | 200 (≈ 596 µM) | 200 (≈ 596 µM) | 0.8 (≈ 2.38 µM) | 50 (≈ 149 µM) | 0.8 (≈ 2.38 µM) | 25 (≈ 74.5 µM) | 3.25 (≈ 9.69 µM) | 0.8 (≈ 2.38 µM) | 0.4 (≈ 1.19 µM) | 18.3 | – | – | – | – | IC50 at 72 h (Cytotoxicity assay (MTT)): 7.3 µg/mL |
| C/C(O)=C1\C(=O)[C@H](CC(C)C)N(Cc2ccc(-c3ccccc3)cc2)C1=O [Compound 13k, (S,Z)-1-(biphenyl-4-ylmethyl)-3-(1-hydroxyethylidene)-5-isobutylpyrrolidine-2,4-dione] | 0.2 (≈ 0.55 µM) | 0.4 (≈ 1.1 µM) | 200 (≈ 550 µM) | 1.6 (≈ 4.4 µM) | 0.8 (≈ 2.2 µM) | 0.8 (≈ 2.2 µM) | 50 (≈ 138 µM) | 100 (≈ 275 µM) | 3.12 (≈ 8.58 µM) | 100 (≈ 275 µM) | 0.8 (≈ 2.2 µM) | 25 (≈ 68.8 µM) | 12.5 (≈ 34.4 µM) | 0.4 (≈ 1.1 µM) | < 0.1 | >197 | 1.6 | 1.6 | 1.6 | 19.7 | Antibiotic MIC ([14]; isolate MRSA-4): 1.6 µg/mL; Antibiotic MIC ([14]; isolate MRSA-5): 1.6 µg/mL; Antibiotic MIC ([14]; isolate MRSA-6): 0.8 µg/mL; Antibiotic MIC ([14]; isolate MRSA-7): 0.8 µg/mL; Antibiotic MIC ([14]; isolate MRSA-8): 0.4 µg/mL; Antibiotic MIC ([14]; isolate MRSA-9): 1.6 µg/mL; Antibiotic MIC ([14]; isolate MRSA-10): 0.8 µg/mL; Antibiotic MIC ([15]; isolate MSSA-11): 1.6 µg/mL; Antibiotic MIC ([15]; isolate MSSA-12): 0.8 µg/mL; Antibiotic MIC ([15]; isolate MSSA-13): 0.8 µg/mL; Antibiotic MIC ([15]; isolate MSSA-14): 0.8 µg/mL; Antibiotic MIC ([15]; isolate MSSA-15): 0.4 µg/mL; Antibiotic MIC ([15]; isolate MSSA-16): 0.8 µg/mL; Antibiotic MIC ([15]; isolate MSSA-17): 0.8 µg/mL; Antibiotic MIC ([15]; isolate MSSA-18): 0.8 µg/mL; Antibiotic MIC ([15]; isolate MSSA-19): 0.8 µg/mL; Antibiotic MIC ([15]; isolate MSSA-20): 0.8 µg/mL |
| C/C(=C\C(=O)OCCCCCCCCC(=O)O)C[C@@H]1OC[C@H](C[C@@H]2O[C@H]2[C@@H](C)[C@H](C)O)[C@@H](O)[C@H]1O [Mupirocin, mupirocin, reference compound] | – | – | > 400 | < 0.2 | – | – | – | > 400 | < 0.2 | > 400 | < 0.2 | – | – | – | – | – | – | – | – | – | Mean Bacterial Count (log10) +/− SD ([16]; 2% ointment): 5.95 +/− 0.92 log10 |
| CCCCCCCCCCN1C(=O)/C(=C(/C)O)C(=O)[C@@H]1C(C)C [Compound 13i, (S,Z)-1-decyl-3-(1-hydroxyethylidene)-5-isopropylpyrrolidine-2,4-dione] | 0.4 (≈ 1.24 µM) | 0.8 (≈ 2.47 µM) | 25 (≈ 77.3 µM) | 0.8 (≈ 2.47 µM) | 0.8 (≈ 2.47 µM) | 0.8 (≈ 2.47 µM) | 12.5 (≈ 38.6 µM) | 100 (≈ 309 µM) | 0.8 (≈ 2.47 µM) | 25 (≈ 77.3 µM) | 0.8 (≈ 2.47 µM) | 25 (≈ 77.3 µM) | 6.25 (≈ 19.3 µM) | 0.4 (≈ 1.24 µM) | 0.8 (≈ 2.47 µM) | 8.8 | – | – | – | 7 | – |
| C/C(O)=C1\C(=O)[C@H](CC(C)C)N(CC2=CCC3CC2C3(C)C)C1=O (stereo partly drawn) [Compound 13l, (5S,Z)-1-((6,6-dimethylbicyclo[3.1.1]hept-2-en-2-yl)methyl)-3-(1-hydroxyethylidene)-5-isobutylpyrrolidine-2,4-dione] | – | 0.8 (≈ 2.41 µM) | > 400 | 1.6 (≈ 4.83 µM) | – | 1.6 (≈ 4.83 µM) | – | > 400 | – | > 400 | 1.6 (≈ 4.83 µM) | – | – | – | – | 22.1 | 3.12 | 3.12 | 3.12 | 35.4 | MIC ([1]; ATCC6919, read-out: MIC, PA): 0.8 µg/mL (≈ 2.41 µM); Mean Bacterial Count (log10) +/− SD ([16]; 2% ointment): 7.67 +/− 0.21 log10; Mean Bacterial Count (log10) +/− SD ([16]; 10% ointment): 6.51 +/− 0.67 log10; Antibiotic MIC ([14]; isolate MRSA-4): 3.12 µg/mL; Antibiotic MIC ([14]; isolate MRSA-5): 3.12 µg/mL; Antibiotic MIC ([14]; isolate MRSA-6): 3.12 µg/mL; Antibiotic MIC ([14]; isolate MRSA-7): 3.12 µg/mL; Antibiotic MIC ([14]; isolate MRSA-8): 0.4 µg/mL; Antibiotic MIC ([14]; isolate MRSA-9): 3.12 µg/mL; Antibiotic MIC ([14]; isolate MRSA-10): 3.12 µg/mL; MIC ([4]; Enterococcus faecalis, ATCC33186, read-out: MIC, EF): 1.6 µg/mL (≈ 4.83 µM); Antibiotic MIC [15]: 3.2 µg/mL and 1.6 µg/mL; MIC ([6]; Mycobacterium tuberculosis): 100 µg/mL (≈ 302 µM); MIC [7]: 3.12 µg/mL (≈ 9.41 µM); MIC ([9]; Streptococcus pyogenes, ATCC700294, read-out: MIC, SP): 25 µg/mL (≈ 75.4 µM); MIC ([10]; Streptococcus pneumoniae, DAW30EC): 50 µg/mL (≈ 151 µM); MIC ([11]; Bacillus subtilis, ATCC23857, read-out: MIC, BS): 1.6 µg/mL (≈ 4.83 µM); MIC ([12]; Staphylococcus aureus): 1.6 µg/mL (≈ 4.83 µM) |

From patent publication US8552208B2, “Analogs of tetramic acid” (University of Tennesseee Research Foundation, priority 2007, dated 2013)
